Key:
[1] = test system: electrically stimulated left atrium of rats; assay: positive inotropic action on electrically stimulated left atrium in vitro; design: species or system rat; conditions: for [EC40 pot.] theophylline / [EC40 pot.] substance: Column E, left atrium; for EC40: Rattus norvegicus, Column B, negative logarithm of EC40pot in mol/l, 40% increase in contraction force, read-out: -lg[EC40 pot.] left atrium (converted)
Method: The positive inotropic action was tested in vitro on the electrically stimulated left atrium of rats (l.a.).
The positive inotropic action of the compounds was tested in vitro on the electrically stimulated left atrium of rats.
Isometric contractions (HSE force sensor K-30; Watanabe recorder, Linear Corder Mark 5) of isolated, left atria from rats (.male., 250-300 g) in an organ bath (10 ml, Tyrode nutrient solution, 31° C., gassing with carbogen, initial tension of the organs 0.25 g) under electrical stimulation (HSE stimulator, 7 V, 3 ms, 2 Hz) were recorded. […] The particular increase in the contraction force is expressed in % of the starting value before administration of the substance. The concentration of the test substance which potentiates the contraction force of the atrium by 40% compared with the starting value [EC40pot. mol/l], expressed by the negative logarithm of the [EC40pot mol/l]: -lg[EC40pot ] serves as a measure of the cardiotonic activity.

[2] = test system: chain of tracheal rings of guinea pigs; assay: relaxing action on chain of tracheal rings in vitro (bronchospasmolytic action); design: species or system guinea pig; conditions: for EC50: Cavia porcellus, Column A, negative logarithm of EC50 in mol/l, 50% of maximum relaxation by (-)isoprenaline, read-out: -lg[EC50] trachea (converted); for [EC40 pot.] left atrium / [EC50] trachea: Column C, measure of organ-selective activity; for [EC50] theophylline / [EC50] substance: Column D, trachea
[3] = toxicity studies, mouse p.o.; conditions: mouse, in vivo, po, 10080 min
Method: The toxicity studies are carried out on female NMRI mice (body weight 23-30 g). The animals (5 animals per dose) receive food and water ad libitum. Various doses of the substances are administered once as a suspension in methocel via a gavage. The period of observation lasts 7 days. The tolerated dose (TD), that is to say the highest dose at which as yet none of the animals die, is determined by observation. The average lethal dose (LD50), that is to say the dose at which 50% of the animals die, is determined from the dose/action curve by means of linear regression.

[4] = test system: acetylcholine-induced bronchospasm; assay: protective effect against acetylcholine-induced bronchospasm in conscious guinea pigs; type: in vivo, guinea pig
Method: The figure in parentheses indicates the number out of 10 animals in which the latency period more than tripled.
The latency period is to be understood to be the time from the start of acetylcholine-atomization until clear signs of asthma appeared.
The time from the start of atomization to the onset of clear respiratory exertion (in certain circumstances, hypoxic convulsion in the lateral position) is measured, and is denoted the latency period.
The test substance is administered orally by gavage (standard dose 100 μmol/kg, volume 1 ml of 4% strength methocel suspension in 0.9% strength sodium chloride solution/kg). […] Prolongation of the latency period to at least twice its length is regarded as a protective effect.

[5] = test system: histamine-induced bronchospasm; assay: inhibition of histamine-induced bronchospasm in anesthetized guinea pigs; type: in vivo, guinea pig; conditions: for inhibition of histamine-induced bronchospasm, TVi / inhibition of histamine-induced bronchospasm, Vmaxe / inhibition of histamine-induced bronchospasm, Vmaxi: 20 μmol/kg i.v.
Method: A method for simultaneously recording pharmacodynamic and toxic effects on internal sensitive receptors, on the respiration and the cardiovascular system of guinea pigs was used [U. Kilian, E. Muller, E. Ch. […] To characterize the bronchospasm induced by histamine (0.09-0.18 μmol /kg i.v.), the maximum flow rate of the respiratory air during inspiration (Vmaxi) and expiration (Vmaxe) and the breath volume (BVi) were measured. A histamine spasm before administration of the substance was compared with several histamine spasms after administration of the substance. The test substances were administered intravenously (i.v.) and/or intrajejunally (i.j.). 5 to 10 animals were used per measurement, and the arithmetic mean was calculated from the results.

Structure (SMILES): CCCCOc1ccc(-c2ccc(=O)[nH]n2)cc1OC [Serial No. 3, 6-(4-n-butoxy-3-methoxyphenyl)-3[2H]pyridazinone]
- [EC40 pot.] theophylline / [EC40 pot.] substance [1]: 63.2
- EC40 [1]: 6.61 µM
- EC50 [2]: 2.51 µM
- [EC40 pot.] left atrium / [EC50] trachea [2]: 2.6
- [EC50] theophylline / [EC50] substance [2]: 53.8
- tolerated dose [3]: > 761

Structure (SMILES): COc1cc(-c2ccc(=O)[nH]n2)ccc1OCCC(C)C [Serial No. 6, 6-[3-methoxy-4-(3-methylbutoxy)-phenyl]-3[2H]pyridazinone]
- [EC40 pot.] theophylline / [EC40 pot.] substance [1]: 4.6
- EC40 [1]: 91.2 µM
- EC50 [2]: 0.708 µM
- [EC40 pot.] left atrium / [EC50] trachea [2]: 219
- [EC50] theophylline / [EC50] substance [2]: 190
- tolerated dose [3]: > 800

Structure (SMILES): COc1ccc(-c2ccc(=O)[nH]n2)cc1OCC(C)C [Serial No. 15, 6-(4-methoxy-3-isobutoxyphenyl)-3[2H]pyridazinone]
- [EC40 pot.] theophylline / [EC40 pot.] substance [1]: 1122
- EC40 [1]: 0.372 µM
- Doubling of the latency period ([4]; 100 μmol/kg p.o., 30 min): 10 N of 10 animals
- Tripling of the latency period ([4]; 100 μmol/kg p.o., 30 min, figure in parentheses): 10 N of 10 animals
- protective effect compared with theophylline ([4]; result in words): greater protective effect
- inhibition of histamine-induced bronchospasm, TVi ([5]; 2 min): 99%
- inhibition of histamine-induced bronchospasm, Vmaxe ([5]; 2 min): 108%
- inhibition of histamine-induced bronchospasm, Vmaxi ([5]; 2 min): 172%
- inhibition of histamine-induced bronchospasm, TVi ([5]; 10 min): 107%
- inhibition of histamine-induced bronchospasm, Vmaxe ([5]; 10 min): 123%
- inhibition of histamine-induced bronchospasm, Vmaxi ([5]; 10 min): 119%
- inhibition of histamine-induced bronchospasm, TVi ([5]; 20 min): 104%
- inhibition of histamine-induced bronchospasm, Vmaxe ([5]; 20 min): 103%
- inhibition of histamine-induced bronchospasm, Vmaxi ([5]; 20 min): 110%
- inhibition of histamine-induced bronchospasm, TVi ([5]; 30 min): 63%
- inhibition of histamine-induced bronchospasm, Vmaxe ([5]; 30 min): 84%
- inhibition of histamine-induced bronchospasm, Vmaxi ([5]; 30 min): 82%
- inhibition of histamine-induced bronchospasm, TVi ([5]; 60 min): 33%
- inhibition of histamine-induced bronchospasm, Vmaxe ([5]; 60 min): 46%
- inhibition of histamine-induced bronchospasm, Vmaxi ([5]; 60 min): 60%
- inhibition of histamine-induced bronchospasm compared with theophylline ([5]; result in words): significantly more effective than theophylline
- EC50 [2]: 0.724 µM
- [EC40 pot.] left atrium / [EC50] trachea [2]: 0.5
- [EC50] theophylline / [EC50] substance [2]: 186
